These results are taken from patent US20220281841A1, “ETHYNYLHETEROCYCLES AS RHO-ASSOCIATED COILED-COIL KINASE (ROCK) INHIBITORS” (Angion Biomedica Corp., priority 2019, published 2022).

Each structure is given as a SMILES string. Counter-ions that a name gives are not always drawn. Bounds are passed on as bounds.

For one data set, the system named is fibroblasts. The settings on record: fibroblasts treated with KD025; cited from earlier work.
Data set [1] relates to murine autoimmune disease. To be noted: cited from earlier work.
The conditions of data set [2]: 12-16 weeks of dosing in healthy volunteers and patients; cited from earlier work.
The target in the next data set is T1, ROCK1 (Homo sapiens, UniProt Q13464).
T1 construct: purchased DiscoverX (KINOMEscan KdELECT service); host or cells: E. coli BL21-derived (T7 phage) or HEK-293
The data set can be described thus: ROCK1 kinase binding affinity, DiscoverX KINOMEscan KdELECT. To be noted: equilibrium dissociation constant, 11-point 3-fold dilution series. The protocol: (§1) 1. ROCK1 and ROCK2 kinase assays: The ROCK1 and ROCK2 kinase binding affinities of compounds in this invention were determined by DiscoverX's KINOMEscan™ KdELECT technology (https://www.discoverx.com/kinomescan-elect-kinase-screening-and-profiling-services): Kinase-tagged T7 phage strains were prepared in an E. coli host derived from the BL21 strain. E. coli were grown to log-phase and infected with T7 phage and incubated with shaking at 32° C. until lysis. The lysates were centrifuged and filtered to remove cell debris. The remaining kinases were produced in HEK-293 cells and subsequently tagged with DNA for qPCR detection. Streptavidin-coated magnetic beads were treated with biotinylated small molecule ligands for 30 minutes at room temperature to generate affinity resins for kinase assays. The liganded beads were blocked with excess biotin and washed with blocking buffer (SeaBlock (Pierce), 1% BSA, 0.05% Tween 20, 1 mM DTT) to remove unbound ligand and to reduce nonspecific binding. […] Test compounds were prepared as 111X stocks in 100% DMSO. Kds were determined using an 11-point 3-fold compound dilution series with three DMSO control points. […] The compounds were then diluted directly into the assays such that the final concentration of DMSO was 0.9%. All reactions performed in polypropylene 384-well plate. Each was a final volume of 0.02 ml. […] The kinase concentration in the eluates was measured by qPCR.

The next data set has as its target T2, ROCK2 (Homo sapiens, UniProt O75116).
T2 construct: purchased DiscoverX (KINOMEscan KdELECT service); host or cells: E. coli BL21-derived (T7 phage) or HEK-293
The data set can be described thus: ROCK2 kinase binding affinity, DiscoverX KINOMEscan KdELECT. The settings on record: for ROCK 2 Selectivity: ROCK2 over ROCK1, from Kd values, N/C = not calculated; for Kd: equilibrium dissociation constant, 11-point 3-fold dilution series, read-out: Kd (μM) ROCK2. Here is the method:
as §1

T1 sequence (Q13464 whole entry): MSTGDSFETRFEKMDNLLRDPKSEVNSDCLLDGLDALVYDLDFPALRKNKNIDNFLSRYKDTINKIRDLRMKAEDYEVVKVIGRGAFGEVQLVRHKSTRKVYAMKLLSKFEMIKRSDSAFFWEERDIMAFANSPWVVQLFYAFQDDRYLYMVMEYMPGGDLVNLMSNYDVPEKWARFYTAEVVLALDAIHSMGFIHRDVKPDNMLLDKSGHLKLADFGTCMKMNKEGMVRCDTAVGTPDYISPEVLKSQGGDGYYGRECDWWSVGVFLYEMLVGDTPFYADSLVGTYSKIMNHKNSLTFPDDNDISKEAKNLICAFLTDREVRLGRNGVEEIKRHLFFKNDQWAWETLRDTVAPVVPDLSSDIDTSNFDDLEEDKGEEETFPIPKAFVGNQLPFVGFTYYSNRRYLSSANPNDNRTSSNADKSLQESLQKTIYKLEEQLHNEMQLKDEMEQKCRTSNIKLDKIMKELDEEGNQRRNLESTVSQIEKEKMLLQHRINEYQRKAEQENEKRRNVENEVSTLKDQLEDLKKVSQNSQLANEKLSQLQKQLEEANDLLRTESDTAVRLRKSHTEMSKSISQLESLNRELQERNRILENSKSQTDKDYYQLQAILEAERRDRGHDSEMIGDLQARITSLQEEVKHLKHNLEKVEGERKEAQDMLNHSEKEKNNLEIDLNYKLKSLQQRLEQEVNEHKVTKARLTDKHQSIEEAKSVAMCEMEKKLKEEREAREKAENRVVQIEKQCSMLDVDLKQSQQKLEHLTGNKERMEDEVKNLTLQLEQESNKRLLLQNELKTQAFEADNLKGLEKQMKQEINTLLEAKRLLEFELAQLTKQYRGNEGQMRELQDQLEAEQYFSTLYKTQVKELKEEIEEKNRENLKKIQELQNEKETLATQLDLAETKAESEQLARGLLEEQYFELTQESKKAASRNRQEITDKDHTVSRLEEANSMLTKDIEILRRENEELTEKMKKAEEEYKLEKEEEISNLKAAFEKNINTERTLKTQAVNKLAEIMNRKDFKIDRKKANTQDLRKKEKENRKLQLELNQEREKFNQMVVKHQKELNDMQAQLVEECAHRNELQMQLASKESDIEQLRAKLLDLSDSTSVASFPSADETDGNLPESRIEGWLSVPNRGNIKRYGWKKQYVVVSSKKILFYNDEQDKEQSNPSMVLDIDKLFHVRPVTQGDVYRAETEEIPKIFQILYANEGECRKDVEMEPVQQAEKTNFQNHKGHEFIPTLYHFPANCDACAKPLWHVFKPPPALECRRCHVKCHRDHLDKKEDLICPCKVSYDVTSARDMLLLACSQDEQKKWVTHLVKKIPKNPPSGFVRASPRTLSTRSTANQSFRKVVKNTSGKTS
T2 sequence (O75116 whole entry): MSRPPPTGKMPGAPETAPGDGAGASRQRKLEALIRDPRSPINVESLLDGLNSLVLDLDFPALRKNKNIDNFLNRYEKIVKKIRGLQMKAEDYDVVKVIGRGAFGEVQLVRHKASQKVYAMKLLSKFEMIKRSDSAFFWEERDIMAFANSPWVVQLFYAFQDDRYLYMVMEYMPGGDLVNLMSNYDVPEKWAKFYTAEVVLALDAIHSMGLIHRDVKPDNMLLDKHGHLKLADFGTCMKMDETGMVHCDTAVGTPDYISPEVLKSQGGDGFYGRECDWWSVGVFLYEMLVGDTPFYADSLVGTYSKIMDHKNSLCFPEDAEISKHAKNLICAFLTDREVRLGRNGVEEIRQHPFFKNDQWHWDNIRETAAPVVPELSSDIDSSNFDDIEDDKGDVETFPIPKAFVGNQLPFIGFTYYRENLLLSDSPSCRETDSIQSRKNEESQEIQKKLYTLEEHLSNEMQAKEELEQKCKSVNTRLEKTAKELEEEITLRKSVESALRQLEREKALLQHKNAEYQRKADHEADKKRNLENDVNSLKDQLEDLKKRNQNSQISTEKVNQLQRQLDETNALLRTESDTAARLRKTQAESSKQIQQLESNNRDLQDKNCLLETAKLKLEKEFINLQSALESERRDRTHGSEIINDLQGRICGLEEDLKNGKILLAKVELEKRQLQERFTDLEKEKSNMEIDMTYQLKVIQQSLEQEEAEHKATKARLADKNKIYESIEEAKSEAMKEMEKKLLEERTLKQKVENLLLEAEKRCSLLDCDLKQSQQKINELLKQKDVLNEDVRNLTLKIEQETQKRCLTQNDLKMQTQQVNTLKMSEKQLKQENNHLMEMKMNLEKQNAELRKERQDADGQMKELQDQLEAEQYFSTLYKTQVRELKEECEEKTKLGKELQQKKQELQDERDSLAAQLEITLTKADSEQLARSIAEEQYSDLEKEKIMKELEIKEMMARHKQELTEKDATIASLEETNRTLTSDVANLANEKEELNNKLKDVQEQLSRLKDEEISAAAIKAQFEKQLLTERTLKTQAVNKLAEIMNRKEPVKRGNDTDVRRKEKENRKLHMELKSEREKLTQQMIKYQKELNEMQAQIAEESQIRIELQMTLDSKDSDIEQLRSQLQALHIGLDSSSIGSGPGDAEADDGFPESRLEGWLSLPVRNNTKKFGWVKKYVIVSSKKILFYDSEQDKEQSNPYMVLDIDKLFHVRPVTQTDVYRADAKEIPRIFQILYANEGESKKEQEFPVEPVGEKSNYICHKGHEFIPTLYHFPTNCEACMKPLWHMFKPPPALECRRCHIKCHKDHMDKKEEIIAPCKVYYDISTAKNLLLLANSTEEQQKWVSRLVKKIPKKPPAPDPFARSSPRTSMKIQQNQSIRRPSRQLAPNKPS

`CC(C)NC(=O)COc1cccc(-c2nc(Nc3ccc4[nH]ncc4c3)c3ccccc3n2)c1` [KD025]: the “expression of profibrotic mRNA” value in the data set with fibroblasts is “decreased expression of several profibrotic mRNA including that of CTGF”. Besides, the “expression of pro-inflammatory, fibrosis-linked cytokines; autoimmune disease” value in data set [1] is “decreased expression of pro-inflammatory, fibrosis-linked cytokines and mitigated murine autoimmune disease”. In addition, in data set [2], the “hemodynamic or other side effects” value is given as “no hemodynamic or other side effects”.
By Kd is commonly meant the free concentration of one partner at which half of the binding sites on the other are occupied at equilibrium, for simple one-to-one binding. As to `C(#Cc1ccnc(-c2ccnc(N3CCN(c4ncc[nH]4)CC3)n2)n1)c1ccc2[nH]ncc2c1` [Ex. 58, 5-((2′-(4-(1H-Imidazol-2-yl)piperazin-1-yl)-[2,4′-bipyrimidin]-4-yl)ethynyl)-1H-indazole], at ROCK1, the Kd stood at 1.6 µM. Moreover, on ROCK2, the “ROCK 2 Selectivity” value is reported as 5 and the Kd came to 0.32 µM.
`Brc1ccc2c(c1)CN(c1nccc(-c3nccc(C#Cc4ccc5[nH]ncc5c4)n3)n1)C2` [Ex. 30, 5-((2′-(5-Bromoisoindolin-2-yl)-[2,4′-bipyrimidin]-4-yl)ethynyl)-1H-indazole] showed a Kd on ROCK1 of 0.77 µM. Also, at ROCK2, the “ROCK 2 Selectivity” value was 132.8 and the Kd worked out at 0.0058 µM.
On the same counts, the results for `COc1ccc2c(c1)CN(c1nccc(-c3nccc(C#Cc4cnc5[nH]ncc5c4)n3)n1)C2` [Ex. 33, 5-((2′-(5-Methoxyisoindolin-2-yl)-[2,4′-bipyrimidin]-4-yl)ethynyl)-1H-pyrazolo[3,4-b]pyridine] are over 30 µM, over 44.1 and 0.68 µM.
On to `COc1ccc2c(c1)CN(c1nccc(-c3nccc(C#Cc4ccc5c(c4)CNC5=O)n3)n1)C2` [Ex. 7, 5-((2′-(5-Methoxyisoindolin-2-yl)-[2,4′-bipyrimidin]-4-yl)ethynyl)isoindolin-1-one], for which the Kd at ROCK1 and at ROCK2 was over 30 µM each time.
Regarding `COc1ccc2c(c1)CN(c1nccc(-c3nccc(C#Cc4cc(F)c5[nH]ncc5c4)n3)n1)C2` [Ex. 6, 7-Fluoro-5-((2′-(5-methoxyisoindolin-2-yl)-[2,4′-bipyrimidin]-4-yl)ethynyl)-1H-indazole], the Kd at ROCK1 worked out at 29 µM. In addition, on ROCK2, the “ROCK 2 Selectivity” value is 2417 and the Kd was determined as 0.012 µM.
On the same counts, the results for `O=C(COc1ccc2c(c1)CN(c1nccc(-c3nccc(C#Cc4ccc5[nH]ncc5c4)n3)n1)C2)NC1CC1` [Ex. 46, 2-((2-(4-((1H-Indazol-5-yl)ethynyl)-[2,4′-bipyrimidin]-2′-yl)isoindolin-5-yl)oxy)-N-cyclopropylacetamide trifluoroacetate] are 0.13 µM, 56.5 and 0.0023 µM.
On the same counts, the results for `Fc1ccc2c(c1)CN(c1ccnc(-c3ccnc(C#Cc4ccc5[nH]ncc5c4)n3)n1)C2` [Ex. 34, 5-((4-(5-Fluoroisoindolin-2-yl)-[2,4′-bipyrimidin]-2′-yl)ethynyl)-1H-indazole] are 0.089 µM, 2.87 and 0.031 µM.
For `C(#Cc1ccnc(-c2ccnc(N3CC(c4ccccc4)C3)n2)n1)c1ccc2[nH]ncc2c1` [Ex. 48, 5-((2′-(3-Phenylazetidin-1-yl)-[2,4′-bipyrimidin]-4-yl)ethynyl)-1H-indazole trifluoroacetate], in that order: 5.5 µM, 36.7 and 0.15 µM.
The molecule `Fc1ccc2c(c1)CN(c1nccc(-c3nccc(C#Cc4ccc5[nH]nc(F)c5c4)n3)n1)C2` [Ex. 31, 3-Fluoro-5-((2′-(5-fluoroisoindolin-2-yl)-[2,4′-bipyrimidin]-4-yl)ethynyl)-1H-indazole] displayed a Kd at ROCK1 of over 30 µM. Moreover, at ROCK2, the “ROCK 2 Selectivity” value is recorded as over 411 and the Kd was 0.073 µM.
For `Fc1ccc(C2CCN(c3nccc(-c4nccc(C#Cc5ccc6[nH]ncc6c5)n4)n3)C2)cc1` (stereo not shown) [Ex. 71, 5-((2′-(3-(4-Fluorophenyl)pyrrolidin-1-yl)-[2,4′-bipyrimidin]-4-yl)ethynyl)-1H-indazole], binding on ROCK1 was characterised by a dissociation constant (Kd) of 13 µM. Also, on ROCK2, the “ROCK 2 Selectivity” value is given as 36.1 and the Kd is 0.36 µM.
For `C(#Cc1ccnc(-c2ccnc(N3CCN(c4nccs4)CC3)n2)n1)c1ccc2[nH]ncc2c1` [Ex. 63, 2-(4-(4-((1H-Indazol-5-yl)ethynyl)-[2,4′-bipyrimidin]-2′-yl)piperazin-1-yl)thiazole], in that order: over 30 µM, over 90.9 and 0.33 µM.
As to `Oc1cc2c(cn1)CN(c1nccc(-c3nccc(C#Cc4ccc5[nH]ncc5c4)n3)n1)C2` [Ex. 16, 2-(4-((1H-Indazol-5-yl)ethynyl)-[2,4′-bipyrimidin]-2′-yl)-2,3-dihydro-1H-pyrrolo[3,4-c]pyridin-6-ol], at ROCK1, the Kd is over 6 µM. Besides, on ROCK2, the “ROCK 2 Selectivity” value is recorded as over 23 and the Kd turned out to be 0.26 µM.
For `COc1cc2c(cn1)CN(c1nccc(-c3nccc(C#Cc4ccc5[nH]ncc5c4)n3)n1)C2` [Ex. 15, 5-((2′-(6-Methoxy-1,3-dihydro-2H-pyrrolo[3,4-c]pyridin-2-yl)-[2,4′-bipyrimidin]-4-yl)ethynyl)-1H-indazole], in that order: over 6 µM, over 35 and 0.17 µM.
Take `COCCN1CCN(c2cc3c(cn2)CN(c2nccc(-c4nccc(C#Cc5ccc6[nH]ncc6c5)n4)n2)C3)CC1` [Ex. 36, 5-((2′-(6-(4-(2-Methoxyethyl)piperazin-1-yl)-1,3-dihydro-2H-pyrrolo[3,4-c]pyridin-2-yl)-[2,4′-bipyrimidin]-4-yl)ethynyl)-1H-indazole trifluoroacetate salt]: the Kd on ROCK1 was 0.069 µM. At ROCK2, the “ROCK 2 Selectivity” value is recorded as 7.26 and the Kd amounted to 0.0095 µM.
For `COC(=O)c1ccc(C#Cc2ccnc(-c3ccnc(N4Cc5ccc(OC)cc5C4)n3)n2)cc1` [Ex. 8, Methyl 4-((2′-(5-methoxyisoindolin-2-yl)-[2,4′-bipyrimidin]-4-yl)ethynyl)benzoate], the Kd at ROCK1 and at ROCK2 was over 30 µM each time.
In the case of `Fc1ccc2c(c1)CN(c1nccc(-c3nccc(C#Cc4cc(F)c5[nH]ncc5c4)n3)n1)C2` [Ex. 14, 7-Fluoro-5-((2′-(5-fluoroisoindolin-2-yl)-[2,4′-bipyrimidin]-4-yl)ethynyl)-1H-indazole], on ROCK1, the Kd was over 30 µM. Further, at ROCK2, the “ROCK 2 Selectivity” value is reported as over 1071 and the Kd was 0.028 µM.
For `C(#Cc1ccnc(-c2ccnc(N3Cc4ccccc4C3)n2)n1)c1ccc2[nH]ncc2c1` [Ex. 12, 5-((2′-(Isoindolin-2-yl)-[2,4′-bipyrimidin]-4-yl)ethynyl)-1H-indazole], in that order: 0.25 µM, 139 and 0.0018 µM.
Take `CNC(=O)COc1ccc2c(c1)CN(c1nccc(-c3nccc(C#Cc4ccc5[nH]ncc5c4)n3)n1)C2` [Ex. 44, 2-((2-(4-((1H-Indazol-5-yl)ethynyl)-[2,4′-bipyrimidin]-2′-yl)isoindolin-5-yl)oxy)-N-methylacetamide]: the Kd on ROCK1 was 0.075 µM; at ROCK2, 0.0023 µM. Also, the “ROCK 2 Selectivity” value on ROCK2 was 32.6.
